{"source": "patent US8163691B2", "about": "“Compositions and methods for identifying agents which modulate PTEN function and PI-3 kinase pathways” (Indiana University Research & Research Corporation, priority 2000, dated 2012)", "key": {"[1]": {"tested_on": "U87MG cells", "assay": "Microvessel density (CD31 positive microvessels) in subcutaneous U87MG tumor tissue", "assay_type": "in vivo, mouse", "details": "LY294002 100 mg/kg/dose x 2 weeks i.p.; controls (DMSO) 50±6", "procedure": "Microvessel density (MVD) was determined for each brain tumor as described in Example I by CD31 staining, performed on cryostat sections (7 μm), fixed in acetone, blocked in 1% goat serum and stained with anti-CD31 antibody (Pharmingen, #01951D). Antibody staining was visualized with peroxidase-conjugated anti-mouse antibody and counter stained with hematoxylin. A negative control was performed on each tumor tissue stained with mouse IgG. Two sections from each tumor were scanned under low power magnification (40×) to identify areas of highest CD31 positive vessel density (Weidner et al. 1991), followed by digitization of 5 fields from this area. The digitized images representing one 100× field were counted for the number of CD31 positive vascular elements. Data was collected independently by two researchers in a blind study. The average number of microvessels per digitized 100× field was determined for 5 tumors per experimental group and analyzed by Student's t-test. […] Tumor volumes were recorded daily (FIG. 15). […] Microvessel density was assessed from multiple digitized images of CD31-stained tumor tissue at 100× magnification (3 fields were evaluated per tumor) and counted blindly for the number of CD31 positive microvessels per unit surface area as described (Weidner et al., (1991) N. Engl. J. Med. 324:1). […]"}, "[2]": {"assay": "Tolerability of treatment in tumor-bearing mice", "assay_type": "in vivo, mouse", "details": "100 mg/kg daily i.p. in 100% DMSO for 2 weeks", "procedure": "LY294002 was administered at a dosage of 100 mg/kg delivered daily by intraperitoneal injection in a small volume of 100% DMSO for 2 weeks, beginning 2 days after tumor implantation. […] Control mice were injected with small volume ([…]) of 100% DMSO. Daily measurement of tumor volume was performed in 3 coordinates using calipers."}, "[3]": {"tested_on": "U87MG cells", "assay": "Subcutaneous U87MG tumor growth in nude mice", "assay_type": "in vivo, mouse", "details": "LY294002 100 mg/kg daily i.p.; control approximately 400 mm3", "procedure": "LY294002 was administered at a dosage of 100 mg/kg delivered daily by intraperitoneal injection in a small volume of 100% DMSO for 2 weeks, beginning 2 days after tumor implantation. […] Control mice were injected with small volume ([…]) of 100% DMSO. Daily measurement of tumor volume was performed in 3 coordinates using calipers. To determine whether PI-3 kinase exerts control over angiogenesis or the growth of glial tumors in vivo the orthotopic brain tumor model described in Example I was utilized. To assess the effect of LY294002 on angiogenesis, we treated mice with LY294002 (100 mg/kg/dose×2 weeks) or DMSO as negative control. Tumor volumes were recorded daily (FIG. 15). On day 14 we stained cryostat sections from subcutaneous tumors for CD31 (PECAM). CD31 is an endothelial marker used to measure the microvessel density of these tumors. Microvessel density was assessed from multiple digitized images of CD31-stained tumor tissue at 100× magnification (3 fields were evaluated per tumor) and counted blindly for the number of CD31 positive microvessels per unit surface area as described (Weidner et al., (1991) N. Engl. J. Med. 324:1). […] Importantly, microvessel determinations were performed on day 7 after implantation to compare angiogenic activity of tumors of similar size. […]"}, "[4]": {"tested_on": "U87MG cells", "assay": "Orthotopic (intracranial) U87MG brain tumor model in nude mice", "assay_type": "in vivo, mouse", "details": "examined on day 42; DMSO controls 4/5 by day 25", "procedure": "To determine whether PTEN exerts control over angiogenesis and/or the growth of glial tumors, an orthotopic brain tumor model was developed in which PTEN-deficient tumor cells were genetically manipulated in vitro and then stereotactically injected into the frontal cerebral cortex of nude mice. The U87MG cell line employed in these studies is derived from a patient diagnosed with glioblastoma multiforme, a highly malignant and uniformly fatal brain tumor. This tumor and other human glioblastomas and glioblastoma cell lines contain a mutation in both PTEN alleles (U87MG cells have a homozygous mutation in PTEN resulting in a null genotype). We also examined the effect of LY294002 on tumor growth and incidence of brain tumor in a nude mouse model. In a previous study, in vivo activity of LY294002 against an ovarian carcinoma was observed. […] In other words, the carcinoma was not assessed in its natural milieu. Hu et al., Clin. Can. Res. 6:880). […] In control mice treated with DMSO, 4/5 had grossly visible and/or histologically confirmed brain tumors by H & E analysis by day 25 after implantation, whereas in 0/5 mice treated with LY294002 had grossly detectable or histologic evidence of intracranial tumor when examined on day 42."}, "[5]": {"tested_on": "Cbl", "assay": "Tyrosine phosphorylation of Cbl after stimulation with sensitized sRBCs (Cbl IP, anti-phosphotyrosine immunoblot)", "assay_type": "cell-based, mouse"}, "[6]": {"tested_on": "J774A.1 cells", "assay": "Fcγ receptor mediated phagocytosis of IgG sensitized sRBCs by J774A.1 cells (phagocytic index)", "assay_type": "cell-based, mouse"}, "[7]": {"tested_on": "Glioblastoma cells engineered to stably express wild-type PTEN", "assay": "MTT viable cell assay, chemosensitivity of glioblastoma cells stably expressing wild-type PTEN", "assay_type": "cell-based, human", "procedure": "(§1) MTT assays. Cells were seeded (6000/well) into a 96 well plate. Twenty-four hours later the growth medium was changed to 1% serum and other reagents were added as described. Treatments proceeded for 24-72 h. At each time point the MTT assay was performed. MTT (10 ul of a 5 mg/ml stock solution dissolved in RPMI medium) is added to each well of cultures 4 hours before quantitation of viable cell number by measuring absorbance in each well at 650 nm with a microplate reader (Molecular Devises,) Agents added to cell LY294002 alone or in combination with etoposide. In addition, comparison was made between U87MG cells null for PTEN and reconstituted with PTEN protein. The absorbance of each well was measured at […] with a microplate reader."}, "[8]": {"tested_on": "U87MG glioblastoma cells, null for PTEN", "assay": "MTT viable cell assay, chemosensitivity of parental PTEN-null U87MG glioblastoma cells", "assay_type": "cell-based, human", "procedure": "as §1"}}, "note": "“Also recorded” adds a separate entry of the source."}
{"smiles": "O=c1cc(N2CCOCC2)oc2c(-c3ccccc3)cccc12", "note": "[LY294002]", "values": [{"measurement": "microvessel density (MVD), CD31 positive microvessels", "setting": "[1]", "value": "22±5"}, {"measurement": "untoward effects in treated mice", "setting": "[2]", "value": "No untoward effects"}, {"measurement": "tumor size at the time of microvessel analysis", "setting": "[3]", "value": "approximately 35 mm3"}, {"measurement": "mice with grossly detectable or histologic evidence of intracranial tumor", "setting": "[4]", "value": "0/5"}]}
{"smiles": "Cc1ccc(-c2nn(C(C)(C)C)c3ncnc(N)c23)cc1", "note": "[PP1]", "values": [{"measurement": "tyrosine phosphorylation of Cbl induced by sensitized sRBCs", "setting": "[5]; PP1 10 μM, stimulation with sRBCs 5 minutes", "value": "inhibited significantly; also recorded: abrogated"}, {"measurement": "dose dependence of the effect on Cbl tyrosine phosphorylation", "setting": "[5]; data not shown", "value": "dose dependent"}, {"measurement": "basal tyrosine phosphorylation levels of Cbl", "setting": "[5]; resting cells", "value": "suppressed the basal tyrosine phosphorylation levels of Cbl"}, {"measurement": "inhibition of phagocytosis of IgG coated sRBCs (phagocytic index)", "setting": "[6]; PP1 10 μM, 1 h pretreatment, target to effector ratio 100:1", "value": "completely abrogated phagocytosis; also recorded: blocks the phagocytosis significantly"}, {"measurement": "dose dependence of inhibition of phagocytosis", "setting": "[6]; PP1 1, 5, 10 μM", "value": "dose dependent manner"}, {"measurement": "inhibition of phagocytosis of sensitized sRBCs", "setting": "[6]; preincubation of the cells, concentration not given", "value": "inhibit this response"}]}
{"smiles": "COc1cc([C@@H]2c3cc4c(cc3[C@@H](O[C@@H]3O[C@@H]5CO[C@@H](C)O[C@H]5[C@H](O)[C@H]3O)[C@H]3COC(=O)[C@H]23)OCO4)cc(OC)c1O", "note": "[etoposide]", "values": [{"measurement": "increase in sensitivity to etoposide, wild-type PTEN versus PTEN-null cells", "setting": "[7]; 0.047 μM versus 4.7 μM", "value": 100, "unit": "fold"}, {"measurement": "IC50", "setting": "[7]; Homo sapiens, cells stably expressing wild-type PTEN, read-out: etoposide required to achieve a 50% cell kill", "value": 47, "unit": "nM"}, {"measurement": "IC50", "setting": "[8]; Homo sapiens, U-87 MG, U87MG null for PTEN, or cells stably expressing catalytically inactive PTEN (R130M cells), read-out: etoposide required to achieve a 50% cell kill", "value": 4700, "unit": "nM"}, {"measurement": "cytotoxic activity of etoposide alone", "setting": "[8]; etoposide 1 uM", "value": "minimal cytotoxic activity"}]}
